Legend:
bovine cornea [1] = assay: Corneal strength, Young's modulus using Instron equipment; conditions: bovine cornea after collagen crosslinking; untreated Control 1.76
Method: (§1) Hyaluronic acid or a hyaluronic acid-Rose Bengal conjugate were dropped on the bovine cornea at 5-minute intervals for 30 minutes, and a 532-nm laser was irradiated for 30 minutes to induce crosslinking between corneal collagen. Afterward, corneal tissue was fixed with formalin, and stained with H&E, followed by observation under a microscope.
In addition, the bovine cornea in which collagen crosslinking was induced was extracted, and then the Young's modulus of the cornea was measured using Instron equipment to analyze the strength of the cornea.

bovine cornea [2] = assay: Corneal bonding of wounded cornea, intraocular pressure by tonometer after 532-nm laser; conditions: wounded bovine eye; dropped at 5-minute intervals for 30 minutes, 532-nm laser for 30 minutes
Method: After approximately […] wound was made in the bovine cornea, the pressure in the bovine eye was measured using a tonometer. Afterward, each of a hyaluronic acid-Rose Bengal conjugate solution and a Rose Bengal solution was dropped on the wound-induced region at 5-minute intervals for 30 minutes, and a 532-nm laser was irradiated for 30 minutes to induce crosslinking between corneal collagen to bond. Likewise, an intraocular pressure was measured after bonding by a laser using a tonometer.
By comparing the intraocular pressure before and after bonding, it was confirmed whether bonding was formed.

bovine cornea [3] = assay: Corneal permeability by two-photon image analysis; assay type: in vitro ADME; conditions: dropped on bovine cornea at 5-minute intervals for 30 minutes; two-photon imaging
Method: The hyaluronic acid-Rose Bengal conjugate synthesized in Example 1 was dropped on the bovine cornea at 5-minute intervals for 30 minutes. As a comparative group, a pure Rose Bengal solution was dropped in the same manner as described above.
Afterward, two-photon image analysis was performed by extracting the cornea from the bovine cornea.

bovine cornea [4] = assay: Corneal thickness from H&E stained corneal tissue after collagen crosslinking; conditions: decreased from 1000 μm; dropped for 30 minutes, 532-nm laser for 30 minutes; H&E images
Method: as §1

## O=C([O-])c1c(Cl)c(Cl)c(Cl)c(Cl)c1-c1c2cc(I)c(=O)c(I)c-2oc2c(I)c([O-])c(I)cc12.[Na+].[Na+] [Rose Bengal]
Bovine cornea [1]
  Young's modulus of the cornea: 2.75
Bovine cornea [2]
  increase in maximum intraocular pressure compared to not treated: approximately two
Bovine cornea [3]
  depth up to which fluorescence was shown in the cornea (corneal permeability): 400 μm
Bovine cornea [4]
  corneal thickness after treatment: 750 μm
